The numbers were not newly measured in PMC12246617, “Cryo-EM structures reveal the PP2A–B55α and Eya3 interaction that can be disrupted by a peptide inhibitor” (The Journal of Biological Chemistry, 2025), which cites them from elsewhere.

This data set has as its system PP2A–B55. The note with it: 6,8-difluoro-4-methylumbelliferyl phosphate substrate; 30 mM Hepes [pH 7.0], 150 mM NaCl, 1 mM MnCl2, 1 mM DTT, 0.01% Triton X-100, 0.1 mg/ml BSA; ref 84 (Padi et al.); read-out: IC50 (phosphatase activity of PP2A–B55). The text has this:
To identify the factor that led to this discrepancy, we first repeated our as ...

In the case of “Eya3 peptide: Eya3 peptide (residues 62–108) of Padi et al. (RSSNDYTSQMYSAKPYAHILSVPVSETAYPGQTQYQTLQQTQPYAVY; UniProt Q99504 62-108, looked up, fragment)”, the IC50 was 1100 ± 84 nM.
